Laboratory results reported in patent US10160747B2, “Compounds and methods for kinase modulation, and indications therefor” (Plexxikon Inc., priority 2016, dated 2018).

Target: T1, c-KIT (Homo sapiens, UniProt P10721)
T1 construct: purchased Millipore 14-559K
Assay: c-KIT recombinant enzyme kinase assay (AlphaScreen)
Type: biochemical
Conditions: 100 ATP, 8 pt
In short: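 Enzyme plus biotinylated poly(Glu4-Tyr) substrate (30 nM) mixed with compound, then ATP added. Donor beads went in for 20 min at room temperature, then PY20 acceptor beads for 60 min. AlphaScreen read; ATP was 10 μM for FLT3-ITD/D835Y and 100 μM for c-KIT.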

T1 sequence (P10721 26-976): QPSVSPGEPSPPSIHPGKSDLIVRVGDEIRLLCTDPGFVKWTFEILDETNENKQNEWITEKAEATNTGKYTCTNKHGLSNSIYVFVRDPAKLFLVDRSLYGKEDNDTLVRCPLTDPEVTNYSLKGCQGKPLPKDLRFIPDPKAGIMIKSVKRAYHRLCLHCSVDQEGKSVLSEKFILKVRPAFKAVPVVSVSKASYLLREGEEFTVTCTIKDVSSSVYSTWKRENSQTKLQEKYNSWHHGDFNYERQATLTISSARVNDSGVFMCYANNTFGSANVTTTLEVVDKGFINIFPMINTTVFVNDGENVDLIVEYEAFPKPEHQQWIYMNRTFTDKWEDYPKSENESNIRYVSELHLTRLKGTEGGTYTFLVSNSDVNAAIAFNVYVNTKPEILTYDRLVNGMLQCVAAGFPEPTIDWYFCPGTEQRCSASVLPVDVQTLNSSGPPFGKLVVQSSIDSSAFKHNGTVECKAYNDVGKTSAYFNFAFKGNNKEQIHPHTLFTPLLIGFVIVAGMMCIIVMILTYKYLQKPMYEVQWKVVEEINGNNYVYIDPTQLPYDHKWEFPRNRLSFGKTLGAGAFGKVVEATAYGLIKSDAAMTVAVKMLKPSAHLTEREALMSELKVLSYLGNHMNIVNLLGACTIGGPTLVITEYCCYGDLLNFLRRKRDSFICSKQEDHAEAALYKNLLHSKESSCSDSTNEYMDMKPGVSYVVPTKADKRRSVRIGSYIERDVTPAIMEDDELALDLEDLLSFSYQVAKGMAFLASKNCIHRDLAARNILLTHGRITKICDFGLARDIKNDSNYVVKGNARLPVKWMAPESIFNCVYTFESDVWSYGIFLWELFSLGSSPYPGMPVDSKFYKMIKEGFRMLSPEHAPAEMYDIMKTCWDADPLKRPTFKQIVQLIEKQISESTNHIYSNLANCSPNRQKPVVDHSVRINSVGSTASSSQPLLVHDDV

IC50 [µM] | SMILES
0.0001 to 10 | N#Cc1ccc(-c2cc3cc(-c4ccc(CC(=O)Nc5cncc(C(F)(F)F)c5)cc4F)cnc3[nH]2)cn1 [Compound P-0195, 2-[4-[2-(6-cyano-3-pyridyl)-1H-pyrrolo[2,3-b]pyridin-5-yl]-3-fluoro-phenyl]-N-[5-(trifluoromethyl)-3-pyridyl]acetamide]
0.0001 to 10 | Cn1cc(Nc2ncc(-c3ccc(CC(=O)NCc4cccnc4)cc3)cn2)cn1 [Compound P-0132, 2-[4-[2-[(1-methylpyrazol-4-yl)amino]pyrimidin-5-yl]phenyl]-N-(3-pyridylmethyl)acetamide]
0.0001 to 10 | Cn1cc(Nc2ncc(-c3ccc(CC(=O)Nc4ccc(S(C)(=O)=O)cc4)cc3)cn2)cn1 [Compound P-0156, 2-[4-[2-[(1-methylpyrazol-4-yl)amino]pyrimidin-5-yl]phenyl]-N-(4-methylsulfonylphenyl)acetamide]
0.0001 to 10 | Cn1cc(Nc2ncc(-c3ccc(CC(=O)Nc4cc(Cl)c(C5CC5)cn4)c(F)c3)cn2)cn1 [Compound P-0107, N-(4-chloro-5-cyclopropyl-2-pyridyl)-2-[2-fluoro-4-[2-[(1-methylpyrazol-4-yl)amino]pyrimidin-5-yl]phenyl]acetamide]
0.0001 to 10 | Cn1cnc(Nc2ncc(-c3ccc(CC(=O)Nc4cc(C(F)(F)F)ccn4)c(F)c3)cn2)c1 [Compound P-0096, 2-[2-fluoro-4-[2-[(1-methylimidazol-4-yl)amino]pyrimidin-5-yl]phenyl]-N-[4-(trifluoromethyl)-2-pyridyl]acetamide]
0.0001 to 10 | Cc1ncc(NC(=O)Cc2ccc(-c3cnc(Nc4cnn(C)c4)nc3)cc2)cc1C(F)(F)F [Compound P-0140, 2-[4-[2-[(1-methylpyrazol-4-yl)amino]pyrimidin-5-yl]phenyl]-N-[6-methyl-5-(trifluoromethyl)-3-pyridyl]acetamide]
0.0001 to 10 | O=C(Cc1ccc(-c2cnc3[nH]c(-c4ccc(N5CCOCC5)nc4)cc3c2)cn1)Nc1ccnc(C(F)(F)F)c1 [Compound P-0183, 2-[5-[2-(6-morpholino-3-pyridyl)-1H-pyrrolo[2,3-b]pyridin-5-yl]-2-pyridyl]-N-[2-(trifluoromethyl)-4-pyridyl]acetamide]
0.0001 to 10 | Cn1cnc(Nc2ncc(-c3ccc(CC(=O)Nc4cnc(F)c(C(C)(F)F)c4)cc3)cn2)c1 [Compound P-0168, N-[5-(1,1-difluoroethyl)-6-fluoro-3-pyridyl]-2-[4-[2-[(1-methylimidazol-4-yl)amino]pyrimidin-5-yl]phenyl]acetamide]
0.0001 to 10 | Cn1cc(Nc2ncc(-c3ccc(CC(=O)Nc4ccc(C(F)(F)F)c(F)c4)cc3)cn2)cn1 [Compound P-0142, N-[3-fluoro-4-(trifluoromethyl)phenyl]-2-[4-[2-[(1-methylpyrazol-4-yl)amino]pyrimidin-5-yl]phenyl]acetamide]
0.0001 to 10 | O=C(Cc1ccc(-c2cnc3[nH]c(-c4ccccc4)cc3c2)cn1)Nc1ccnc(C(F)(F)F)c1 [Compound P-0005, 2-[5-(2-phenyl-1H-pyrrolo[2,3-b]pyridin-5-yl)-2-pyridyl]-N-[2-(trifluoromethyl)-4-pyridyl]acetamide]
0.0001 to 10 | COc1ccc(-c2cc3cc(-c4ccc(CC(=O)Nc5cncc(C(F)(F)F)c5)cc4F)cnc3[nH]2)cn1 [Compound P-0196, 2-[3-fluoro-4-[2-(6-methoxy-3-pyridyl)-1H-pyrrolo[2,3-b]pyridin-5-yl]phenyl]-N-[5-(trifluoromethyl)-3-pyridyl]acetamide]
0.0001 to 10 | Cn1cnc(Nc2ncc(-c3ccc(CC(=O)Nc4cncc(C(F)(F)F)c4)cc3)cn2)c1 [Compound P-0167]
0.0001 to 10 | COc1ccccc1CNC(=O)Cc1ccc(-c2cnc(Nc3cnn(C)c3)nc2)cc1 [Compound P-0160, N-[(2-methoxyphenyl)methyl]-2-[4-[2-[(1-methylpyrazol-4-yl)amino]pyrimidin-5-yl]phenyl]acetamide]
0.0001 to 10 | Cn1cc(Nc2ncc(-c3ccc(CC(=O)Nc4cccc(S(C)(=O)=O)c4)cc3)cn2)cn1 [Compound P-0155, 2-[4-[2-[(1-methylpyrazol-4-yl)amino]pyrimidin-5-yl]phenyl]-N-(3-methylsulfonylphenyl)acetamide]
0.0001 to 10 | Cn1cc(Nc2ncc(-c3ccc(CC(=O)Nc4cnnc(Cl)c4)cc3)cn2)cn1 [Compound P-0151, N-(6-chloropyridazin-4-yl)-2-[4-[2-[(1-methylpyrazol-4-yl)amino]pyrimidin-5-yl]phenyl]acetamide]
0.0001 to 10 | Cn1cc(Nc2ncc(-c3ccc(CC(=O)NCc4cncc(C(F)(F)F)c4)cc3)cn2)cn1 [Compound P-0161, 2-[4-[2-[(1-methylpyrazol-4-yl)amino]pyrimidin-5-yl]phenyl]-N-[[5-(trifluoromethyl)-3-pyridyl]methyl]acetamide]
0.0001 to 10 | Cn1cc(Nc2ncc(-c3ccc(CC(=O)Nc4ccc(C(F)(F)F)nc4)cc3)cn2)cn1 [Compound P-0095, 2-[4-[2-[(1-methylpyrazol-4-yl)amino]pyrimidin-5-yl]phenyl]-N-[6-(trifluoromethyl)-3-pyridyl]acetamide]
0.0001 to 10 | Cn1cc(Nc2ncc(-c3ccc(CC(=O)Nc4ccnc(S(C)(=O)=O)c4)cc3)cn2)cn1 [Compound P-0154, 2-[4-[2-[(1-methylpyrazol-4-yl)amino]pyrimidin-5-yl]phenyl]-N-(2-methylsulfonyl-4-pyridyl)acetamide]
0.0001 to 10 | Cn1cnc(Nc2ncc(-c3ccc(CC(=O)Nc4cnc(F)c(C(C)(F)F)c4)cc3F)cn2)c1 [Compound P-0170, N-[5-(1,1-difluoroethyl)-6-fluoro-3-pyridyl]-2-[3-fluoro-4-[2-[(1-methylimidazol-4-yl)amino]pyrimidin-5-yl]phenyl]acetamide]
0.0001 to 10 | Cn1cc(Nc2ncc(-c3ccc(CC(=O)Nc4cccnc4)cc3)cn2)cn1 [Compound P-0131, 2-[4-[2-[(1-methylpyrazol-4-yl)amino]pyrimidin-5-yl]phenyl]-N-(3-pyridyl)acetamide]
0.0001 to 10 | Cn1cc(Nc2ncc(-c3ccc(CC(=O)Nc4cccc(C(F)(F)F)n4)cc3)cn2)cn1 [Compound P-0152, 2-[4-[2-[(1-methylpyrazol-4-yl)amino]pyrimidin-5-yl]phenyl]-N-[6-(trifluoromethyl)-2-pyridyl]acetamide]
0.0001 to 10 | COc1ncc(NC(=O)Cc2ccc(-c3cnc(Nc4cnn(C)c4)nc3)cc2)cc1C(F)(F)F [Compound P-0138, N-[6-methoxy-5-(trifluoromethyl)-3-pyridyl]-2-[4-[2-[(1-methylpyrazol-4-yl)amino]pyrimidin-5-yl]phenyl]acetamide]
0.0001 to 10 | Cn1cc(Nc2ncc(-c3ccc(CC(=O)Nc4cncc(C(F)(F)F)c4)cc3)cn2)cn1 [Compound P-0136, 2-[4-[2-[(1-methylpyrazol-4-yl)amino]pyrimidin-5-yl]phenyl]-N-[5-(trifluoromethyl)-3-pyridyl]acetamide]
0.0001 to 10 | Cc1ncc(NC(=O)Cc2ccc(-c3cnc(Nc4cn(C)cn4)nc3)cc2F)cc1C(F)(F)F [Compound P-0099, 2-[2-fluoro-4-[2-[(1-methylimidazol-4-yl)amino]pyrimidin-5-yl]phenyl]-N-[6-methyl-5-(trifluoromethyl)-3-pyridyl]acetamide]
0.0001 to 10 | COCCn1cc(Nc2ncc(-c3ccc(CC(=O)Nc4cncc(C(F)(F)F)c4)cc3)cn2)cn1 [Compound P-0178, 2-[4-[2-[[1-(2-methoxyethyl)pyrazol-4-yl]amino]pyrimidin-5-yl]phenyl]-N-[5-(trifluoromethyl)-3-pyridyl]acetamide]
